Source: US20260207563A1, “UREA COMPOUNDS AS ACTIVATORS OF POTASSIUM CHANNELS KV7.2/7.3 USEFUL IN THE TREATMENT OF CNS AND PNS DISORDERS” (ANGELINI PHARMA S.P.A., priority 2022, published 2026)

What was measured:
Format in all cases: cell-based
[1] = target: T1, heteromeric KV7.2/KV7.3 channels (KCNQ2, KCNQ3) (Homo sapiens, UniProt O43525+O43526); assay: Automated patch-clamp (Sophion Qube 384) potency assay against KV7.2/KV7.3 channels; conditions: CHO-K1/Kv7.2/Kv7.3 cells; for EC50: EC50 from concentration-response of shift in Vhalf, 10 concentrations up to 30 μM, read-out: Kv7.2/7.3 EC50; for Kv7.2/7.3 ΔV1/2: maximal shift in the Vhalf from the top of the curve
T1 construct: expressed in transfected cells; host or cells: CHO-K1
How it was run: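 Activator potency: EC50 from 4-parameter logistic fit of mean Vhalf shift across ten 1-in-3 dilutions starting at 30 μM (n=4), with DMSO (typically 0.3%) control. Currents recorded by leak-subtracted whole-cell clamp of stable CHO-K1 KV7.2/KV7.3 cells, held at −80 mV, stepped −100 to +20 mV then 0 mV tails.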

[2] = target: T2, homomeric KV7.4 channel (KCNQ4) (Homo sapiens, UniProt P56696); assay: Automated patch-clamp (Qube) counter-screening assay against KV7.4 channel; conditions: CHO-K1 cells expressing KV7.4; class by maximal shift in the Vhalf at 30 μM
T2 construct: host or cells: CHO-K1
How it was run: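 EC50 and maximal shift in half-activation voltage come from 4-parameter logistic fits of mean Vhalf shifts. The series had ten 1-in-3 concentrations, highest 30 μM, each tested in quadruplicate. Recordings used automated Qube patch clamp on a stable CHO-K1 line expressing KCNQ4, and selectivity was judged from the 30 μM Vhalf shift.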

[3] = target: T3, heteromeric KV7.3/KV7.5 channel (KCNQ3, KCNQ5) (Homo sapiens, UniProt O43525+Q9NR82); assay: Automated patch-clamp counter-screening against KV7.3/KV7.5 channel; conditions: HEK293 cells expressing Kv7.3/KV7.5; class by maximal shift in the Vhalf at 30 μM
T3 construct: host or cells: HEK293
How it was run: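 Potency came from a 4-parameter logistic fit of mean voltage-of-half-activation shifts, yielding EC50 and maximal shift; selectivity was judged on the shift at 30 μM. Compounds were applied at ten 3-fold dilutions from 30 μM in quadruplicate to HEK293 cells stably carrying Kv7.3 with tet-inducible Kv7.5.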

Row | SMILES | EC50 [1] | Kv7.2/7.3 ΔV1/2 [1] | Kv7.4 selectivity criteria [2] | Kv7.3/7.5 selectivity criteria [3]
1 | O=C(NCc1ccnc(OCC(F)(F)F)c1)N[C@@H]1CCc2ccc(C(F)(F)F)cc21 [Compound 162] | 0.926 µM | 18.2 mV | B (Non-selective compounds showed Kv7.4 and/or Kv7.3/7.5 ΔV1/2 higher than 15 mV (letter B in table 3)) | A (Selective compounds showed Kv7.4 and/or Kv7.3/7.5 ΔV1/2 equal to or lower than 15 mV (letter A in table 3))
2 | O=C(NCc1ccnc(OCC(F)(F)F)c1)N[C@H]1CCc2ccc(C(F)(F)F)cc21 [Compound 163] | 1.07 µM | 27.41 mV | A (Selective compounds showed Kv7.4 and/or Kv7.3/7.5 ΔV1/2 equal to or lower than 15 mV (letter A in table 3)) | A (Selective compounds showed Kv7.4 and/or Kv7.3/7.5 ΔV1/2 equal to or lower than 15 mV (letter A in table 3))
3 | O=C(NCc1ccnc(OCC(F)(F)F)c1)N[C@@H]1COc2ccc(F)cc21 [Compound 165] | 2.66 µM | 28.4 mV | A (Selective compounds showed Kv7.4 and/or Kv7.3/7.5 ΔV1/2 equal to or lower than 15 mV (letter A in table 3)) | A (Selective compounds showed Kv7.4 and/or Kv7.3/7.5 ΔV1/2 equal to or lower than 15 mV (letter A in table 3))
4 | COc1ccc2c(c1)OC[C@H]2NC(=O)NCc1ccnc(OCC(F)(F)F)c1 [Compound 166] | 8.43 µM | 52.09 mV | A (Selective compounds showed Kv7.4 and/or Kv7.3/7.5 ΔV1/2 equal to or lower than 15 mV (letter A in table 3)) | A (Selective compounds showed Kv7.4 and/or Kv7.3/7.5 ΔV1/2 equal to or lower than 15 mV (letter A in table 3))

More lines, main results first:

Row | EC50 [1] | Kv7.2/7.3 ΔV1/2 [1] | SMILES | Kv7.4 selectivity criteria [2] | Kv7.3/7.5 selectivity criteria [3]
5 | 1.55 µM | 15.05 mV | Cc1ccc2c(c1)[C@@H](NC(=O)NCc1ccnc(OCC(F)(F)F)c1)CC2 [Compound 159] | A (Selective compounds showed Kv7.4 and/or Kv7.3/7.5 ΔV1/2 equal to or lower than 15 mV (letter A in table 3)) | A (Selective compounds showed Kv7.4 and/or Kv7.3/7.5 ΔV1/2 equal to or lower than 15 mV (letter A in table 3))
6 | 3.18 µM | 25.41 mV | N#Cc1cccc2c1CC[C@@H]2NC(=O)NCc1ccnc(OCC(F)(F)F)c1 [Compound 160] | A (Selective compounds showed Kv7.4 and/or Kv7.3/7.5 ΔV1/2 equal to or lower than 15 mV (letter A in table 3)) | A (Selective compounds showed Kv7.4 and/or Kv7.3/7.5 ΔV1/2 equal to or lower than 15 mV (letter A in table 3))
7 | 7 µM | 26.66 mV | C#CCOc1cc(CNC(=O)NCC2CCC(F)(F)CC2)ccn1 [Compound 161] | A (Selective compounds showed Kv7.4 and/or Kv7.3/7.5 ΔV1/2 equal to or lower than 15 mV (letter A in table 3)) | A (Selective compounds showed Kv7.4 and/or Kv7.3/7.5 ΔV1/2 equal to or lower than 15 mV (letter A in table 3))
8 | 1.24 µM | 25.3 mV | COc1cc2c(cc1F)CC[C@H]2NC(=O)NCc1ccnc(OCC(F)(F)F)c1 [Compound 164] | A (Selective compounds showed Kv7.4 and/or Kv7.3/7.5 ΔV1/2 equal to or lower than 15 mV (letter A in table 3)) | A (Selective compounds showed Kv7.4 and/or Kv7.3/7.5 ΔV1/2 equal to or lower than 15 mV (letter A in table 3))
